The target in experiment [1] is WDR5 (Homo sapiens (Human), UniProt P61964). The experiment can be described thus: TR-FRET binding assay (displacement of 10mer-Thr-FAM probe from WDR5). Background: TR-FRET usually uses a lanthanide donor and a delayed reading to cut background.
Experiment [2] has as its system MV4:11 human cancer cell lines. The experiment can be described thus: Anti-proliferative activity, CellTiter-Glo viability assay, 7 day protocol. The class given is cell-based. The note with it: Homo sapiens, MV4-11, 168 h, MV4:11 cells, 7 day incubation, read-out: GI50 on cellular proliferation of MV4:11 human cancer cell lines. Put shortly:
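MV4:11 cells seeded at 3600 cells/ml and exposed to compounds for 7 days, 0.1% DMSO final. Viability measured by CellTiter-Glo luminescence. GI50 from three biological replicates, each in technical triplicate, given as mean ± S.E.M.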
In general terms: ATP-based viability assays read luminescence as a measure of living cells.

Setting [3] is: read-out: Ki for Inhibition of WDR5 by TR-FRET assay, TR-FRET, 10mer-Thr-FAM probe, WDR5-His tag 2 nM, pH 7.0.
[4] abbreviates: read-out: Ki for Inhibition of WDR5 by TR-FRET assay.

pKi: −log10 of the molar value. Like-named read-outs stand apart in the source and are kept apart here. A value given as a limit tells only on which side of the number the result lay.

As for `CCn1cc(-c2cc(Cn3ccn(C)c3=N)cc(C(=O)NCc3ccc(F)c(C)c3)c2)c(C(F)(F)F)n1` [Example 198, 3-(1-Ethyl-3-(trifluoromethyl)-1H-pyrazol-4-yl)-N-(4-fluoro-3-methylbenzyl)-5-((2-imino-3-methyl-2,3-dihydro-1H-imidazol-1-yl)methyl)benzamide], in experiment [1] (setting [3]), the pKi is more than 10.00. Moreover, the GI50 in experiment [2] is less than 100 nM.
`CCn1cc(-c2cc(Cn3ccn(C4CC4)c3=N)cc(C(=O)NCc3ccc(=O)n(C)c3)c2)c(C(F)(F)F)n1` [Example 199, 3-((3-Cyclopropyl-2-imino-2,3-dihydro-1H-imidazol-1-yl)methyl)-5-(1-ethyl-3-(trifluoromethyl)-1H-pyrazol-4-yl)-N-((1-methyl-6-oxo-1,6-dihydropyridin-3-yl)methyl)benzamide]: in experiment [1] (setting [3]), the pKi was 9.52. Besides, in experiment [2], the GI50 worked out at 940 nM.
On to `CCn1cc(-c2cc(Cn3ccn(C)c3=N)cc(C(=O)NCc3ccc(=O)n(C)c3)c2)c(C(F)(F)F)n1` [Example 200, 3-(1-Ethyl-3-(trifluoromethyl)-1H-pyrazol-4-yl)-5-((2-imino-3-methyl-2,3-dihydro-1H-imidazol-1-yl)methyl)-N-((1-methyl-6-oxo-1,6-dihydropyridin-3-yl)methyl)benzamide], for which the pKi in experiment [1] (setting [3]) is 9.82. In experiment [2], the GI50 came out at 710 nM.
In the case of `Cc1cc([C@@H](NC(=O)c2cc(Cn3ccn(C)c3=N)cc(-c3ccccc3C)c2)C2CC2)ccc1F` [Example 201, (S)—N-(Cyclopropyl(4-fluoro-3-methylphenyl)methyl)-5-((2-imino-3-methyl-2,3-dihydro-1H-imidazol-1-yl)methyl)-2′-methyl-[1,1′-biphenyl]-3-carboxamide], in experiment [1] (setting [3]), the pKi is more than 10.00. The GI50 in experiment [2] is 140 nM.
On to `CCn1cc(-c2cc(Cn3ccn(C4CC4)c3=N)cc(C(=O)N[C@H](c3ccc(F)c(Cl)c3)C3CC3)c2)c(C(F)(F)F)n1` [Example 202, (S)—N-((3-Chloro-4-fluorophenyl)(cyclopropyl)methyl)-3-((3-cyclopropyl-2-imino-2,3-dihydro-1H-imidazol-1-yl)methyl)-5-(1-ethyl-3-(trifluoromethyl)-1H-pyrazol-4-yl)benzamide], for which the pKi in experiment [1] (setting [3]) is more than 10.00. Also, the GI50 in experiment [2] is less than 100 nM.
For `Cc1cc([C@@H](NC(=O)c2cc(CN3CCN(C)C3=N)cc(-c3cn(C)nc3C(F)(F)F)c2)C2CC2)ccc1F` [Example 203, (S)—N-(cyclopropyl(4-fluoro-3-methylphenyl)methyl)-3-((2-imino-3-methylimidazolidin-1-yl)methyl)-5-(1-methyl-3-(trifluoromethyl)-1H-pyrazol-4-yl)benzamide], the pKi in experiment [1] (setting [4]) is more than 10.00. The GI50 in experiment [2] was less than 100 nM.
`Cc1cc([C@@H](NC(=O)c2cc(Cn3ccn(C4CC4)c3=N)cc(-c3cn(C)nc3C(F)(F)F)c2)C2CC2)ncc1F` [Example 204, (S)—N-(Cyclopropyl(5-fluoro-4-methypyridin-2-yl)methyl)-3-((3-cyclopropyl-2-imino-2,3-dihydro-1H-imidazol-1-yl)methyl)-5-(1-methyl-3-(trifluoromethyl)-1H-pyrazol-4-yl)benzamide]: the pKi in experiment [1] (setting [3]) was more than 10.00. Moreover, the GI50 in experiment [2] is less than 100 nM.
The matching figures for `Cc1cc([C@@H](NC(=O)c2cc(Cn3ccn(C)c3=N)cc(-c3cn(C)nc3C(F)(F)F)c2)C2CC2)ncc1F` [Example 205, (S)—N-(Cyclopropyl(5-fluoro-4-methylpyridin-2-yl)methyl)-3-((2-imino-3-methyl-2,3-dihydro-1H-imidazol-1-yl)methyl)-5-(1-methyl-3-(trifluoromethyl)-1H-pyrazol-4-yl)benzamide]: more than 10.00 and less than 100 nM.
Take `COc1cc([C@@H](NC(=O)c2cc(Cn3ccn(C)c3=N)cc(-c3cn(C)nc3C(F)(F)F)c2)C2CC2)ccc1F` [Example 207]: in experiment [1] (setting [3]), the pKi was more than 10.00. Besides, the GI50 in experiment [2] is less than 100 nM.
The matching figures for `CCOc1c(C(=O)N[C@@H](C)c2ccc(F)c(C)c2)cc(Cn2ccn(C)c2=N)cc1-c1cn(C)nc1C(F)(F)F` [Example 209, (S)-2-Ethoxy-N-(1-(4-fluoro-3-methylphenyl)ethyl)-5-((2-imino-3-methyl-2,3-dihydro-1H-imidazol-1-yl)methyl)-3-(1-methyl-3-(trifluoromethyl)-1H-pyrazol-4-yl)benzamide]: more than 10.00 and less than 100 nM.
Regarding `CCOc1c(C(=O)N[C@H](c2ccc(F)c(C)c2)C2CC2)cc(Cn2ccn(C)c2=N)cc1-c1cn(C)nc1C(F)(F)F` [Example 210, (S)—N-(Cyclopropyl(4-fluoro-3-methylphenyl)methyl)-2-ethoxy-5-((2-iminio-3-methyl-2,3-dihydro-1H-imidazol-1-yl)methyl)-3-(1-methyl-3-(trifluoromethyl)-1H-pyrazol-4-yl)benzamide], the pKi in experiment [1] (setting [3]) is more than 10.00. In addition, in experiment [2], the GI50 was less than 100 nM.
The matching figures for `Cn1cc(-c2cc(Cn3ccn(C)c3=N)cc(C(=O)N[C@H](c3ccc(Cl)c(Cl)c3)C3CC3)c2)c(C(F)(F)F)n1` [Example 211]: more than 10.00 and less than 100 nM.
`CCn1cc(-c2cc(CN3CCN(C)C3=N)cc(C(=O)N[C@H](c3ccc(F)c(C)c3)C3CC3)c2)c(C(F)(F)F)n1` [Example 212, (S)—N-(Cyclopropyl(4-fluoro-3-methylphenyl)methyl)-3-(1-ethyl-3-(trifluoromethyl)-1H-pyrazol-4-yl)-5-((2-imino-3-methylimidazolidin-1-yl)methyl)benzamide] showed a pKi in experiment [1] of more than 10.00. Also, the GI50 in experiment [2] is less than 100 nM.
For the compound `CCn1cc(-c2cc(CN3CCN(C)C3=N)cc(C(=O)N[C@H](c3ccc(F)c(F)c3)C3CC3)c2)c(C(F)(F)F)n1` [Example 213, (S)—N-(Cyclopropyl(3,4-difluorophenyl)methyl)-3-(1-ethyl-3-(trifluoromethyl)-1H-pyrazol-4-yl)-5-((2-imino-3-methylimidazolidin-1-yl)methyl)benzamide], the pKi in experiment [1] is more than 10.00. Besides, the GI50 in experiment [2] was less than 100 nM.
`CCn1cc(-c2cc(CN3CCN(C)C3=N)cc(C(=O)N[C@H](c3ccc(F)c(Cl)c3)C3CC3)c2)c(C(F)(F)F)n1` [Example 214, (S)—N-((3-Chloro-4-fluorophenyl)(cyclopropyl)methyl)-3-(1-ethyl-3-(trifluoromethyl)-1H pyrazol-4-yl)-5-((2-imino-3-methylimidazolidin-1-yl)methyl)benzamide] had a pKi in experiment [1] of more than 10.00. For the same compound, in experiment [2], the GI50 is less than 100 nM.
The matching figures for `Cc1cc([C@@H](NC(=O)c2cc(CN3CCN(C)C3=N)cc(-c3cn(C(C)C)nc3C(F)(F)F)c2)C2CC2)ccc1F` [Example 215, (S)—N-(Cyclopropyl(4-fluoro-3-methylphenyl)methyl)-3-((2-imino-3-methylimidazolidin-1-yl)methyl)-5-(1-isopropyl-3-(trifluoromethyl)-1H-pyrazol-4-yl)benzamide]: more than 10.00 and less than 100 nM.
For the compound `CC(C)n1cc(-c2cc(CN3CCN(C)C3=N)cc(C(=O)N[C@H](c3ccc(F)c(F)c3)C3CC3)c2)c(C(F)(F)F)n1` [Example 216, (S)—N-(Cyclopropyl(3,4-difluorophenyl)methyl)-3-((2-imino-3-methylimidazolidin-1-yl)methyl)-5-(1-isopropyl-3-(trifluoromethyl)-1H-pyrazol-4-yl)benzamide], in experiment [1] (setting [3]), the pKi was more than 10.00. In addition, the GI50 in experiment [2] is less than 100 nM.
Consider `Cc1cc([C@@H](NC(=O)c2cc(Cn3ccn(C)c3=N)cc(C3(C(F)(F)F)CC3)c2)C2CC2)ccc1F` [Example 217, (S)—N-(cyclopropyl(4-fluoro-3-methylphenyl)methyl)-3-((2imino-3-methyl-2,3-dihydro-1H-imidazol-1-yl)methyl)-5-(1-(trifluoromethyl)cyclopropyl)benzamide], for which, in experiment [1] (setting [3]), the pKi was more than 10.00. Moreover, in experiment [2], the GI50 is less than 100 nM.
The matching figures for `CN1CCN(Cc2cc(C(=O)N[C@H](c3ccc(F)c(Cl)c3)C3CC3)cc(-c3cccnc3C(F)(F)F)c2)C1=N` [Example 219, (S)—N-((3-chloro-4-fluorophenyl)(cyclopropyl)methyl)-3-((2-imino-3-methylimidazolidin 1-yl)methyl)-5-(2-(trifluoromethyl)pyridin-3-yl)benzamide]: more than 10.00 and less than 100 nM.
`Cc1cccc(C2(NC(=O)c3cc(Cn4ccn(C)c4=N)cc(-c4cn(C)nc4C(F)(F)F)c3)CCC2)c1` [Example 220, 3-((2-Imino-3-methyl-2,3-dihydro-1H-imidazol-1-yl)methyl)-5-(1-methyl-3-(trifluoromethyl)-1H-pyrazol-4-yl)-N-(1-(m-tolyl)cyclobutyl)benzamide]: in experiment [1] (setting [3]), the pKi is more than 10.00. Moreover, the GI50 in experiment [2] is 220 nM.
With `COc1cc([C@@H](NC(=O)c2cc(Cn3ccn(C)c3=N)cc(-c3cn(C)nc3C(F)(F)F)c2)C2CC2)ncc1F` [Example 221, (S)—N-(Cyclopropyl(5-fluoro-4-methoxypyridin-2-yl)methyl)-3-((2-imino-3-methyl-2,3-dihydro-1-imidazol-1-yl)methyl)-5-(1-methyl-3-(trifluoromethyl)-1H-pyrazol-4-yl)benzamide], in experiment [1] (setting [3]), the pKi is more than 10.00. The GI50 in experiment [2] is less than 100 nM.
As for `Cc1cc([C@@H](NC(=O)c2cc(Cn3ccn(C)c3=N)cc(N3CCOC[C@H]3C)c2)C2CC2)ccc1F` [Example 227, N—((S)-cyclopropyl(4-fluoro-3-methylphenyl)methyl)-3-((2-imino-3-methyl-2,3-dihydro-1H-imidazol-1-yl)methyl)-5-((R)-3-methylmorpholino)benzamide], the pKi in experiment [1] (setting [4]) is 8.68. The GI50 in experiment [2] was 940 nM.

In general, pKi refers to the Ki on a negative log10 scale, so that one unit is a factor of ten.
